Test results as given in patent US8859021B2, “Skin appearance through gene manipulation” (Sytheon, priority 2007, dated 2014).

System: EpiDerm tissues
Details: retinol 10 μg/ml, Sytenol A 5 μg/ml, 2 days, vs 0.1% DMSO control

`C=C[C@@](C)(/C=C/c1ccc(O)cc1)CCC=C(C)C` [Sytenol A, bakuchiol] was tested, and the “Fold Change, Insulin-like growth factor-binding protein 6 precursor (IGBP-6)” value was “+4.03 fold”, the “Fold Change, JUP Catenin gamma (Junction plakoglobin) (Table 8)” value was “+3.83 fold” and the “Fold Change, JUP Catenin gamma (Table 9)” value was “+3.83 fold”. For the same compound, the “Fold Change, KIF1C Kinesin-like protein KIF1C” value was “+2.03 fold”, the “Fold Change, KIF2A Kinesin-like protein KIF2A” value was “No effect” and the “Fold Change, KIF4A Chromosome-associated kinesin KIF4A” value was “+2.15 fold”. For the same compound, the “Fold Change, KIF13A Kinsein-like protein KIF13A” value was “No effect”, the “Fold Change, KIF13B Kinsein-like protein KIF13B” value was “+3.53 fold” and the “Fold Change, KIF17 Kinesin-like protein KIF17” value was “+2.44 fold”. The “Fold Change, KIF26A Kinesin family member 26A” value was “No effect”, the “Fold Change, KIFC2 Kinesin-like protein KIFC2” value was “No effect” and the “Fold Change, KRT2 Keratin-2; Cytokeratin-2e (CK 2e)” value was −3.53 fold. The “Fold Change, KRT5 Keratin-5, Cytokeratin-5 (CK-5)” value was “+2.81 fold”, the “Fold Change, KRT7 Keratin-7; Cytokeratin-7 (CK-7)” value was “+13.75 fold” and the “Fold Change, KRT13 Keratin-13; Cytokeratin-13 (CK-13)” value was “+16.34 fold”. The “Fold Change, KRT15 Keratin-15; Cytokeratin-15 (CK-15)” value was “+11.29 fold”, the “Fold Change, KRT19 Keratin-19; Cytokeratin-19 (CK-19)” value was “+20.67 fold” and the “Fold Change, LAMA3 Laminin subunit alpha-3 precursor (Epiligrin 170 kDa subunit)” value was “+11.03 fold”. The “Fold Change, LAMC2 Laminin subunit gamma-2 precursor (Laminin B2t chain)” value was “+7.84 fold”, the “Fold Change, LRAT Lecithin retinol acyltransferase” value was “+82.23 fold” and the “Fold Change, LRRC49 Tubulin polyglutamylase complex subunit 4 (PGs4)” value was −3.47 fold. For the same compound, the “Fold Change, MC1R, TUBB3 Tubulin beta-3-chain (Tubulin beta-III)” value was “+3.23 fold”, the “Fold Change, MMP9 Matrix metalloprotease-9-precursor” value was “+12.61 fold” and the “Fold Change, MMP15 Matrix metalloprotease-15 precursor” value was “+4.19 fold”. For the same compound, the “Fold Change, MMP21 Matrix metalloprotease-21 precursor” value was −7.89 fold, the “Fold Change, MMP23A, MMP23B Matrix metalloprotease-23” value was −8.83 fold and the “Fold Change, MMP26 Matrix metalloprotease-26-precursor (MMP-26)” value was “+2.91 fold”. The “Fold Change, MMP28 Matrix metalloprotease-28-precursor” value was “+15.91 fold”, the “Fold Change, MYH14 Myosin-14” value was “+5.72 fold” and the “Fold Change, MYL2 Myosin regulatory light chain 2” value was −2.50 fold. The “Fold Change, MYO1F Myosin-lf (Myosin-le)” value was “+3.44 fold”, the “Fold Change, MYO6 Myosin-VI” value was “+2.38 fold” and the “Fold Change, Mast/stem cell growth factor receptor precursor (SCFR) (Proto-oncogene tyrosine-protein kinase kit (c-kit))” value was −2.31 fold. For the same compound, the “Fold Change, NDST4 N-heparan sulfate sulfotransferase 4” value was “+4.43 fold”, the “Fold Change, NEIL2 DNA glycosylase/AP lyase Neil2” value was “+4.17 fold” and the “Fold Change, NF-kappa-B-activating protein” value was −2.32 fold. The “Fold Change, NGRN, TTLL13 Tubulin tyrosine ligase-like family, member 13” value was “+12.65 fold”, the “Fold Change, NT5C1B, RDH14 Retinol dehydrogenase 14 (Alcohol dehydrogenase PAN20)” value was −3.57 fold and the “Fold Change, Nuclear factor Kappa B p105 unit (NF-kappa-B) (DNA-binding factor KBF 1)” value was −2.01 fold. The “Fold Change, PARP2 Poly (ADP-ribose) polymerase 2” value was “+1.46 fold”, the “Fold Change, PARP9 Poly (ADP-ribose) polymerase 9” value was “+7.74 fold” and the “Fold Change, PARP12 Poly (ADP-ribose) polymerase 12” value was “+6.05 fold”. The “Fold Change, PARP15 Poly (ADP-ribose) polymerase 15” value was “No effect”, the “Fold Change, PCDH11X Procadherin-11” value was “+10.15 fold” and the “Fold Change, PCDH18 Procadherin-18-precursor” value was “No effect”. The “Fold Change, PCDH19 Procadherin-19-precursor” value was “No effect”, the “Fold Change, PCDHB1 Procadherin-beta-1-precursor” value was “+2.00 fold” and the “Fold Change, PCDHB2 Procadherin-beta-2-precursor” value was “+18.74 fold”. The “Fold Change, PCDHB3 Procadherin-beta-3-precursor” value was “No effect”, the “Fold Change, PCDHB4 Procadherin-beta-4-precursor” value was −7.81 fold and the “Fold Change, PFN4 Profilin-4 (Profilin IV)” value was “No effect”. For the same compound, the “Fold Change, PI3 Elastase-specific inhibitor” value was “+2.72 fold”, the “Fold Change, Protein Kinase B (RAC-alpha serine/threonine-protein kinase) (RAC-PK-alpha)” value was −3.47 fold and the “Fold Change, RARRES1 Retinoic acid receptor responder protein 1” value was “+12.87 fold”. For the same compound, the “Fold Change, RBP1 Cellular Retinol-binding protein-I” value was “+4.17 fold”, the “Fold Change, RBP2 Cellular Retinol-binding protein-II” value was “+4.12 fold” and the “Fold Change, RBP7 Cellular retinoic acid-binding protein 4” value was “+3.09 fold”. The “Fold Change, RETSAT All-trans-retinol 13,14-reductase precursor” value was −2.84 fold, the “Fold Change, SELE E-selection precursor (Endothelial leukocyte adhesion molecule 1) (ELAM-1)” value was “No effect” and the “Fold Change, SERPINB1 Leukocyte elastase inhibitor” value was “+6.09 fold”. For the same compound, the “Fold Change, SIR2-like protein1/NAD-dependent deacetylase sirtuin-1 (hSIRT1)” value was −1.54 fold, the “Fold Change, SIR2-like protein2/NAD-dependent deacetylase sirtuin-2” value was “+1.52 fold” and the “Fold Change, SIR2-like protein7/NAD-dependent deacetylase sirtuin-7” value was “+2.47 fold”. The “Fold Change, SRRM1 Serine/arginine repetitive matrix protein 1 (SR-related nuclear matrix protein 160 kDa) (SRm160)” value was “+3.13 fold”, the “Fold Change, TBCEL Tubulin-specific chaperone cofactor E-like protein (EL)” value was “No effect” and the “Fold Change, TTBK1 Tau-tubulin kinase 1” value was “No effect”. The “Fold Change, TTLL1 Tubulin polyglutamylase complex subunit 3 (PGs3)” value was “+2.07 fold”, the “Fold Change, TUBB2B Tubulin beta-2B chain” value was −3.31 fold and the “Laminins gene regulation (in words)” value was “up-regulate”.
